Reference: PubChem BioAssay (NCI)
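Tested at 5 concentrations; 48 h exposure; 96-well plates; endpoints linearly interpolated, else capped at highest concentration. TGI marks complete inhibition of growth.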 Where a SMILES comes first, the peptide text is derived from it. The star is where a group is joined. X36 = O=C(c1ccc(-c2ccc(Cl)cc2Cl)o1)*

What was measured:
Assay in all cases: NCI tumour cell line growth inhibition, 48 h
[1] = system: 786-0 renal
[2] = system: CAKI-1 renal
[3] = system: CCRF-CEM leukemia
[4] = system: EKVX NSCLC
[5] = system: HCC-2998 colon
[6] = system: HCT-116 colon
[7] = system: HOP-62 NSCLC
[8] = system: IGROV1 ovarian
[9] = system: KM12 colon
[10] = system: MALME-3M melanoma
[11] = system: MDA-N
[12] = system: OVCAR-3 ovarian
[13] = system: RPMI-8226 leukemia
[14] = system: SK-MEL-28 melanoma
[15] = system: SK-MEL-5 melanoma
[16] = system: SK-OV-3 ovarian
[17] = system: SN12C renal
[18] = system: UACC-257 melanoma
[19] = system: UO-31 renal

Structure (SMILES) | TGI [1] | TGI [2] | TGI [3] | TGI [4] | TGI [5] | TGI [6] | TGI [7] | TGI [8] | TGI [9] | TGI [10] | TGI [11] | TGI [12] | TGI [13] | TGI [14] | TGI [15] | TGI [16] | TGI [17] | TGI [18] | TGI [19]
O=C(O)c1ccc(S(=O)(=O)c2ccccc2[N+](=O)[O-])cc1 | > 10 µM | > 10 µM | > 10 µM | > 10 µM | > 10 µM | > 10 µM | > 10 µM | > 10 µM | > 10 µM | > 10 µM | > 10 µM | > 10 µM | > 10 µM | > 10 µM | > 10 µM | > 10 µM | > 10 µM | > 10 µM | –
C=CCCC(=O)CC(O)(C(F)(F)F)C(F)(F)F | > 100 µM | > 100 µM | > 100 µM | > 100 µM | > 100 µM | > 100 µM | – | > 100 µM | > 100 µM | > 100 µM | > 100 µM | > 100 µM | > 100 µM | > 100 µM | > 100 µM | > 100 µM | – | > 100 µM | > 100 µM
CC(=O)O[C@H]1CC[C@@]2(C)C(=CC[C@H]3[C@@H]4C[C@H](N5CCCC5)[C@H](OC(C)=O)[C@@]4(C)CC[C@@H]32)C1 | > 100 µM | > 100 µM | > 100 µM | > 100 µM | > 100 µM | > 100 µM | > 100 µM | > 100 µM | > 100 µM | > 74.3 µM | > 84.4 µM | > 100 µM | > 100 µM | > 100 µM | 54.8 µM | > 100 µM | > 100 µM | > 68.2 µM | > 100 µM
CCC1(C(=O)OC(C)(C)C)OC12C(C)CCCC2C (stereo not given) | > 100 µM | > 100 µM | 39.8 µM | > 100 µM | 45.1 µM | > 100 µM | > 100 µM | > 100 µM | > 100 µM | > 100 µM | > 100 µM | > 100 µM | 49.9 µM | > 100 µM | > 100 µM | > 100 µM | > 100 µM | > 100 µM | > 100 µM
CCC(C)C(NC(=O)CNC(=O)C(Cc1ccccc1)NC(=O)C1CCCN1C(=O)c1ccc(-c2ccc(Cl)cc2Cl)o1)C(=O)OC (stereo not given) (X36-PFGI-OMe; configuration not given here) | > 100 µM | > 100 µM | > 100 µM | 89.9 µM | 64 µM | > 100 µM | > 100 µM | > 100 µM | > 100 µM | > 100 µM | > 100 µM | > 100 µM | > 100 µM | > 100 µM | 45.6 µM | > 100 µM | 82.6 µM | 67.2 µM | > 100 µM
CC1=NN2C(=N)/C(=C/c3ccco3)C(=O)N=C2S1 | > 100 µM | > 100 µM | > 100 µM | > 100 µM | > 100 µM | > 100 µM | > 100 µM | > 100 µM | > 100 µM | > 100 µM | > 100 µM | > 100 µM | > 100 µM | > 100 µM | > 100 µM | > 100 µM | > 100 µM | > 100 µM | > 100 µM
Cc1ccc([C@H]2CC(=O)C[C@H](c3ccc(C)cc3)C23C(=O)c2ccccc2C3=O)cc1 | 31.7 µM | > 100 µM | 59.9 µM | > 100 µM | > 100 µM | > 100 µM | 41.8 µM | > 100 µM | > 100 µM | > 100 µM | > 100 µM | > 100 µM | > 100 µM | > 100 µM | > 100 µM | > 100 µM | > 100 µM | 49.7 µM | > 100 µM
